Results on 23 compounds are retold here after patent US20180327367A1, “MACROCYCLIC BROAD SPECTRUM ANTIBIOTICS” (priority 2015, published 2018).

Values after ≈ are worked out from the molar mass of the structure shown. Where two headings read alike, the source gives them in different places.

What all share (format): cell-based
Assay [1] deals with Escherichia coli MC4100 harboring the IMP4213 (E. coli IMP). Briefly: microbe, parasite or virus in culture. The conditions noted are these: Escherichia coli, 22 h. The gist of the method:
(§1)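 CLSI broth microdilution in cation-adjusted Mueller Hinton Broth with 0.002% Tween-80; inoculum final OD600 0.0005, 22 hours at 35° C. Ten 2-fold dilutions starting at 4 μg/mL (protocol 2) or 0.5 μg/mL (protocol 3).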

For assay [2], the system named is Escherichia coli ATCC 25922. Put plainly: Minimum inhibitory concentration, broth micro-dilution (CLSI), E. coli. The conditions noted are these: Escherichia coli, ATCC25922, 22 h.
The test system of assay [3] is Methicillin Resistant Staphylococcus aureus strain USA 300, NRS384. Briefly: Minimum inhibitory concentration, broth micro-dilution (CLSI), S. aureus. The conditions noted are these: Staphylococcus aureus, MRSA / NRS 384 / USA300, 22 h. An outline of the steps: as §1
Setting [4] is: read-out: MIC (μg/mL) E. coli IMP, E. coli MC4100 IMP4213, increased outer-membrane permeability, 35° C., 22 hours.
Setting [5] is: E. coli ATCC 25922, 35° C., 22 hours, read-out: MIC (μg/mL) E. coli.
Where [6] appears, read: MRSA USA 300 NRS384, 35° C., 22 hours, read-out: MIC (μg/mL) S. aureus.
Setting [7] is: read-out: MIC (μg/mL) E. coli, E. coli ATCC 25922, 35° C., 22 hours.
[8] abbreviates: read-out: MIC (μg/mL) S. aureus, MRSA USA 300 NRS384, 35° C., 22 hours.
Setting [9] is: read-out: MIC (μg/mL) E. coli IMP.
Where [10] appears, read: read-out: MIC (μg/mL) S. aureus.

Take `CCCCCCCCCCCC(=O)N(C)[C@@H](CCN)C(=O)N(C)[C@@H]1C(=O)N[C@@H](C)C(=O)N[C@H](C(=O)NCC#N)Cc2ccc(OCCN)c(c2)-c2cc1ccc2OCCN` [Compound 398]: the MIC in assay [1] (setting [4]) turned out to be 0.13 µg/mL (≈ 0.156 µM); in assay [2] (setting [5]), 16 µg/mL (≈ 19.2 µM); in assay [3] (setting [6]) it was 0.13 µg/mL (≈ 0.156 µM).

For `CCCCCCCCCC(=O)N[C@@H](CO)C(=O)N(C)[C@@H](CCN)C(=O)N(C)[C@@H]1C(=O)N[C@@H](C)C(=O)N[C@H](C(=O)NCC#N)Cc2ccc(OCCN)c(c2)-c2cc1ccc2OCCN` [Compound 399], the results for the MIC in assay [1] (setting [4]), in assay [2] (setting [7]) and in assay [3] (setting [8]) were 0.19 µg/mL (≈ 0.213 µM), 16 µg/mL (≈ 17.9 µM) and 0.25 µg/mL (≈ 0.28 µM), respectively.

As for `CCCCCCCCNC(=O)N[C@@H](CCN)C(=O)N(C)[C@@H]1C(=O)N[C@@H](C)C(=O)N[C@H](C(=O)NCC#N)Cc2ccc(OCCN)c(c2)-c2cc1ccc2OCCN` [Compound 402], the MIC was found to be 0.19 µg/mL (≈ 0.24 µM) in assay [1] (setting [4]), 32 µg/mL (≈ 40.4 µM) in assay [2] (setting [5]) and 0.38 µg/mL (≈ 0.479 µM) in assay [3] (setting [6]).

`CCCCCCCCc1ccc(C(=O)N[C@@H](CCN)C(=O)N(C)[C@@H]2C(=O)N[C@@H](C)C(=O)N[C@H](C(=O)NCC#N)Cc3ccc(OCCN)c(c3)-c3cc2ccc3OCCN)c(OCC(=O)O)c1` [Compound 409]: the MIC in assay [1] (setting [4]) is less than 0.0039 µg/mL; in assay [2] (setting [5]), 0.5 µg/mL (≈ 0.539 µM); in assay [3] (setting [6]), 0.25 µg/mL (≈ 0.269 µM).

On to `CCCCCCCCc1ccc(C(=O)N[C@@H](CCN)C(=O)N(C)[C@@H]2C(=O)N[C@@H](C)C(=O)N[C@H](C(=O)NCC#N)Cc3ccc(OCCN)c(c3)-c3cc2ccc3OCCN)c(OCC(=O)NCC#N)c1` [Compound 410], for which the MIC was determined as 0.13 µg/mL (≈ 0.135 µM) in assay [1] (setting [4]), 6 µg/mL (≈ 6.21 µM) in assay [2] (setting [5]) and 0.13 µg/mL (≈ 0.135 µM) in assay [3] (setting [6]).

Take `Cc1cc(-n2cccn2)ccc1C(=O)N[C@@H](CCN)C(=O)N(C)[C@@H]1C(=O)N[C@@H](C)C(=O)N[C@H](C(=O)NCC#N)Cc2ccc(OCCN)c(c2)-c2cc1ccc2OCCN` [Compound 411]: the MIC in assay [1] (setting [9]) was found to be 0.5 µg/mL (≈ 0.608 µM); in assay [2] (read-out: MIC (μg/mL) E. coli) it was 16 µg/mL (≈ 19.5 µM); in assay [3] (setting [10]) it was 2 µg/mL (≈ 2.43 µM).

Turning to `CCCCCCCCc1ccc(C(=O)N[C@@H](CCN)C(=O)N(C)[C@@H]2C(=O)N[C@@H](C)C(=O)N[C@H](C(=O)NCC#N)Cc3ccc(OCCN)c(c3)-c3cc2ccc3OCCN)c(/C=C/C(=O)O)c1` [Compound 414], the MIC in assay [1] (setting [9]) came out at 0.25 µg/mL (≈ 0.271 µM); in assay [2] (read-out: MIC (μg/mL) E. coli), 64 µg/mL (≈ 69.3 µM); in assay [3] (setting [10]), 0.5 µg/mL (≈ 0.541 µM).

For the compound `C[C@@H]1NC(=O)[C@@H](N(C)C(=O)[C@H](CCCCN)NC(=O)c2ccc(-c3ccc(Cl)cc3)cc2)c2ccc(O)c(c2)-c2cc(ccc2O)C[C@@H](C(=O)NCC#N)NC1=O` [Compound 416], the MIC in assay [1] (setting [4]) is 2 µg/mL (≈ 2.52 µM); in assay [2] (setting [7]) it was greater than 64 µg/mL; in assay [3] (setting [8]), 0.5 µg/mL (≈ 0.629 µM).

Consider `C[C@@H]1NC(=O)[C@@H](N(C)C(=O)[C@H](CCCCN)NC(=O)c2ccc(-c3ccc(Cl)cc3)cc2)c2ccc(O)c(c2)-c2cc(ccc2O)C[C@@H](C(=O)N[C@@H](C)C#N)NC1=O` [Compound 417], for which the MIC in assay [1] (setting [4]) is 4 µg/mL (≈ 4.95 µM); in assay [2] (setting [5]), greater than 64 µg/mL; in assay [3] (setting [6]), 13 µg/mL (≈ 16.1 µM).

With `C[C@@H]1NC(=O)[C@@H](N(C)C(=O)[C@H](CCCCN)NC(=O)c2ccc(-c3ccc(Cl)cc3)cc2)c2ccc(O)c(c2)-c2cc(ccc2O)C[C@@H](C(=O)N[C@H](C#N)CO)NC1=O` [Compound 418], the results for the MIC in assay [1] (setting [4]), in assay [2] (setting [5]) and in assay [3] (setting [6]) were greater than 4 µg/mL, greater than 64 µg/mL and 4 µg/mL (≈ 4.85 µM), respectively.

Take `CCCCCCCCCCCC(=O)N[C@@H](CO)C(=O)N(C)[C@@H]1C(=O)N[C@@H](C)C(=O)N[C@H](C(=O)N[C@H](C#N)CC)Cc2ccc(OCCN)c(c2)-c2cc1ccc2OCCN` [Compound 419]: the MIC in assay [1] (setting [9]) worked out at 0.75 µg/mL (≈ 0.898 µM); in assay [2] (read-out: MIC (μg/mL) E. coli), 32 µg/mL (≈ 38.3 µM); in assay [3] (setting [10]), 4 µg/mL (≈ 4.79 µM).

With `Cc1cc(C(C)C)ccc1C(=O)N[C@@H](CCN)C(=O)N(C)[C@@H]1C(=O)N[C@@H](C)C(=O)N[C@H](C(=O)NCC#N)Cc2ccc(OCCN)c(c2)-c2cc1ccc2OCCN` [Compound 433], the MIC was 0.094 µg/mL (≈ 0.118 µM) in assay [1] (setting [4]), 4 µg/mL (≈ 5.01 µM) in assay [2] (setting [7]) and 0.5 µg/mL (≈ 0.627 µM) in assay [3] (setting [8]).

As for `Cc1cc(C2(C)CC2)ccc1C(=O)N[C@@H](CCN)C(=O)N(C)[C@@H]1C(=O)N[C@@H](C)C(=O)N[C@H](C(=O)NCC#N)Cc2ccc(OCCN)c(c2)-c2cc1ccc2OCCN` [Compound 435], the MIC was found to be 0.063 µg/mL (≈ 0.0778 µM) in assay [1] (setting [4]), 4 µg/mL (≈ 4.94 µM) in assay [2] (setting [5]) and 0.5 µg/mL (≈ 0.617 µM) in assay [3] (setting [6]).

Consider `Cc1cc(C2CC(c3ccccc3)C2)ccc1C(=O)N[C@@H](CCN)C(=O)N(C)[C@@H]1C(=O)N[C@@H](C)C(=O)N[C@H](C(=O)NCC#N)Cc2ccc(OCCN)c(c2)-c2cc1ccc2OCCN` (stereo partly drawn) [Compound 441], for which the MIC turned out to be 0.016 µg/mL (≈ 0.0181 µM) in assay [1] (setting [4]), 1 µg/mL (≈ 1.13 µM) in assay [2] (setting [5]) and 0.063 µg/mL (≈ 0.0711 µM) in assay [3] (setting [6]).

For `Cc1c(C(=O)N[C@@H](CCN)C(=O)N(C)[C@@H]2C(=O)N[C@@H](C)C(=O)N[C@H](C(=O)NCC#N)Cc3ccc(OCCN)c(c3)-c3cc2ccc3OCCN)cnn1-c1ccc(CC(C)C)cc1` [Compound 444], the MIC in assay [1] (setting [4]) turned out to be 0.031 µg/mL (≈ 0.0353 µM); in assay [2] (setting [5]) it was 3 µg/mL (≈ 3.42 µM); in assay [3] (setting [6]), 0.094 µg/mL (≈ 0.107 µM).

In the case of `Cc1cc(-n2cc(C#CC(C)C)cn2)ccc1C(=O)N[C@@H](CCN)C(=O)N(C)[C@@H]1C(=O)N[C@@H](C)C(=O)N[C@H](C(=O)NCC#N)Cc2ccc(OCCN)c(c2)-c2cc1ccc2OCCN` [Compound 446], the MIC was determined as 0.012 µg/mL (≈ 0.0135 µM) in assay [1] (setting [4]), 0.5 µg/mL (≈ 0.563 µM) in assay [2] (setting [5]) and 0.063 µg/mL (≈ 0.0709 µM) in assay [3] (setting [6]).

For `CCCCCCCCc1ccc(C(=O)N[C@@H](CCN)C(=O)N(C)[C@@H]2C(=O)N[C@@H](C)C(=O)N[C@H](C(=O)NCC#N)Cc3ccc(OCCN)c(c3)-c3cc2ccc3OCCN)c(CCC(=O)O)c1` [Compound 447], the MIC came to 0.012 µg/mL (≈ 0.013 µM) in assay [1] (setting [4]), 2 µg/mL (≈ 2.16 µM) in assay [2] (setting [5]) and 0.13 µg/mL (≈ 0.14 µM) in assay [3] (setting [6]).

`CCCCCCCCc1ccc(C(=O)N[C@@H](CCN)C(=O)N(C)[C@@H]2C(=O)N[C@@H](C)C(=O)N[C@H](C(=O)NCC#N)Cc3ccc(OCCN)c(c3)-c3cc2ccc3OCCN)c(CCC#N)c1` [Compound 449]: the MIC in assay [1] (setting [4]) turned out to be 0.063 µg/mL (≈ 0.0694 µM); in assay [2] (setting [7]) it was 1 µg/mL (≈ 1.1 µM); in assay [3] (setting [8]), 0.094 µg/mL (≈ 0.104 µM).

For `CCCCCCCCc1ccc(C(=O)N[C@@H](CCN)C(=O)N(C)[C@@H]2C(=O)N[C@@H](C)C(=O)N[C@H](C(=O)NCC#N)Cc3ccc(OCCN)c(c3)-c3cc2ccc3OCCN)c(CCC(N)=O)c1` [Compound 451], the MIC stood at 0.016 µg/mL (≈ 0.0173 µM) in assay [1] (setting [4]), 2 µg/mL (≈ 2.16 µM) in assay [2] (setting [5]) and 0.023 µg/mL (≈ 0.0249 µM) in assay [3] (setting [6]).

In the case of `CCCCCCCCCCN(CCN)CCC(=O)N(C)[C@@H]1C(=O)N[C@@H](C)C(=O)N[C@H](C(=O)NCC#N)Cc2ccc(OCCN)c(c2)-c2cc1ccc2OCCN` [Compound 452], the MIC in assay [1] (setting [4]) was found to be 2 µg/mL (≈ 2.53 µM); in assay [2] (setting [7]), 64 µg/mL (≈ 80.8 µM); in assay [3] (setting [8]), 0.19 µg/mL (≈ 0.24 µM).

Regarding `CCCCCCCCCCCC(=O)N[C@@H](CCC#N)C(=O)N(C)[C@@H]1C(=O)N[C@@H](C)C(=O)N[C@H](C(=O)NCC#N)Cc2ccc(OCCN)c(c2)-c2cc1ccc2OCCN` [Compound 455], the values for the MIC in assay [1] (setting [4]), in assay [2] (setting [5]) and in assay [3] (setting [6]) were 0.5 µg/mL (≈ 0.602 µM), 32 µg/mL (≈ 38.6 µM) and 0.5 µg/mL (≈ 0.602 µM), respectively.

Turning to `CCCCCCCCCCCCCC(=O)N[C@@H](CCN)C(=O)N(C)[C@@H]1C(=O)N[C@@H](C)C(=O)N[C@H](C(=O)NCC#N)Cc2ccc(OCCO)c(c2)-c2cc1ccc2OCCO` [Compound 458], the MIC was 0.0078 µg/mL (≈ 0.00918 µM) in assay [1] (setting [4]), 16 µg/mL (≈ 18.8 µM) in assay [2] (setting [5]) and 0.25 µg/mL (≈ 0.294 µM) in assay [3] (setting [6]).

Take `CCCCCCc1ccc(C(=O)N[C@@H](CCN)C(=O)N(C)[C@@H]2C(=O)N[C@@H](C)C(=O)N[C@H](C(=O)NCC#N)Cc3ccc(O)c(c3)-c3cc2ccc3O)c(C)c1` [Compound 466]: the MIC turned out to be 0.063 µg/mL (≈ 0.0836 µM) in assay [1] (setting [4]), 64 µg/mL (≈ 84.9 µM) in assay [2] (setting [5]) and 0.25 µg/mL (≈ 0.332 µM) in assay [3] (setting [6]).
